Source: patent US9428753B2, “Use of LXR antagonists for treatment of side effects of elevated glucocorticoid levels” (The Governing Council of the University of Toronto, priority 2013, dated 2016)
pIC50: −log10 of the molar value. “Also recorded” adds a separate entry of the source.

Experiments:
GR [1] = biological target: T1, GR (Homo sapiens, UniProt P04150); experiment: GAL4-GR / UAS-luc transfection assay in mouse primary hepatocytes; assay type: cell-based; design: co-transfecting UAS-reporter and GAL4-LBD of the nuclear receptors LXRα, LXRβ and GR; GAL4 (fusion partner); expressed in transfected cells; host or cells: mouse primary hepatocytes; details: GAL4-GR activated with 100 nM Dex
T1 sequence (P04150 524-758 limits assumed): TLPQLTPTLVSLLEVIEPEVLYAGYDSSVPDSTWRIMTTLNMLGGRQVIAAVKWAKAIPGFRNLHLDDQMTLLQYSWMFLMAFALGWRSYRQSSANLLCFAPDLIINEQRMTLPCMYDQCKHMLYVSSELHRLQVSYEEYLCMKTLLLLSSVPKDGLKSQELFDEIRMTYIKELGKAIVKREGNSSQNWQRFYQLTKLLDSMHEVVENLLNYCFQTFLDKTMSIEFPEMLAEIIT
Description: (§1) RLU=relative luciferase units.

LXRα−/− mice = experiment: In vivo 5 day Dex ± GSK2033 co-treatment study; design: species or system mouse
Experimental: LXRα−/− mice were treated with Vehicle (Veh), Dex (2.5 mg/kg) b.i.d. or GSK2033 40 mg/kg (once a day) along with Dex b.i.d. for 5 days. (A) Plasma glucose levels were measured by a colorimetric kit (Wako). (B) Spleen weights were measured at the time of sacrifice, and are presented normalized to body weight. (C) Liver Pepck, FOXO1, Pgc 1α, FGF21, GR and LXRβ gene expression measured by QPCR. Data represent the Avg±SEM, N=2-5. *P<0.05 by One way ANOVA, Student Newman Keuls.
Having observed promising results with GSK2033 co-treatment with Dex in-vitro (GSK2033-mediated suppression of GC-induced gluconeogenic side effects without affecting desirable immune suppression); a study was conducted, in which whole body LXRα−/− mice were treated with vehicle (Veh), 2.5 mg/kg bid (subcutaneous injection) Dex or Dex+40 mg/kg GSK2033 (once a day intraperitoneal injection) for 5 days, and sacrificed at lights on.

G6Pc = G6Pc gene expression in mouse primary hepatocytes; details: LXRα−/− hepatocytes
Srebp-1c = Srebp-1c gene expression in mouse primary hepatocytes; assay type: cell-based; details: WT, LXRα−/− and LXRβ−/− hepatocytes; 250 nM T09 + 10 μM GSK2033
LXRβ = biological target: T2, LXRβ (Homo sapiens, UniProt P55055); experiment: GAL4-LXRβ / UAS-luc co-transfection reporter assay in HEK293 cells; assay type: cell-based; design: co-transfecting UAS-reporter and GAL4-LBD of the nuclear receptors LXRα, LXRβ and GR; GAL4 (fusion partner); expressed in transfected cells; host or cells: HEK293 cells; mouse primary hepatocytes
T2 sequence (P55055 222-460 limits assumed): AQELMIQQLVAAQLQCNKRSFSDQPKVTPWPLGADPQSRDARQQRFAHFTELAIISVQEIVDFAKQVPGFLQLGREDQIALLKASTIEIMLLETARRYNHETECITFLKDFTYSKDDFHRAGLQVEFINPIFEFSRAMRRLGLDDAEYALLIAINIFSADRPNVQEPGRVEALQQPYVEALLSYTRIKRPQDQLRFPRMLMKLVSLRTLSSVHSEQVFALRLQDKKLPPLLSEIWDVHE
Experimental: as §1, §1
(§2) Further experiments were then carried out to determine the inhibitory potencies for the individual LXR isoforms in HEK 293 cells by co-transfecting UAS-reporter and GAL4-LBD of the nuclear receptors LXRα, LXRβ and GR and then treating with 8 different concentrations of GSK2033. To assess suppression of ligand activated receptors, the transfected cells were co-treated with increasing doses of GSK2033, in addition to T09091317 or Dex (dexamethasone) (at EC80 of LXR isoforms and GR, respectively).
A number of experiments were carried out to determine the relative inhibitory potencies of GSK2033, Amgen 54 and DMHCl for the individual LXR isoforms in HEK 293 cells by co-transfecting UAS-reporter and GAL4-LBD of the nuclear receptors LXRα, LXRβ and GR and then treating with 6 different concentrations of GSK2033, Amgen 54 and DMHCl.

LXRα = biological target: T3, LXRα (Homo sapiens, UniProt Q13133); experiment: GAL4-LXRα / UAS-luc transfection assay in mouse primary hepatocytes
T3 sequence (Q13133 209-447 limits assumed): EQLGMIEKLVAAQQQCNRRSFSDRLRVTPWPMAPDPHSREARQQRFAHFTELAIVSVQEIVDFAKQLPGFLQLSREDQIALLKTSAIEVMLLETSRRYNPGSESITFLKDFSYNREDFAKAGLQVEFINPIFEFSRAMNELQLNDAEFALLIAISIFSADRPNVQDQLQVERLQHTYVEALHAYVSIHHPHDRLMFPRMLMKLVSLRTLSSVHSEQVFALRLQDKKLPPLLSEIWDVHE

GR [2] = biological target: T1, GR; experiment: GAL4-GR / UAS-luc co-transfection reporter assay in HEK293 cells; assay type: cell-based; design: co-transfecting UAS-reporter and GAL4-LBD of the nuclear receptors LXRα, LXRβ and GR; GAL4 (fusion partner); expressed in transfected cells; host or cells: HEK293 cells; mouse primary hepatocytes
Experimental: as §1, §1, §2
A number of experiments were carried out to determine the relative inhibitory potencies of GSK2033, Amgen 54 and DMHCl for the individual LXR isoforms in HEK 293 cells by co-transfecting UAS-reporter and GAL4-LBD of the nuclear receptors LXRα, LXRβ and GR and then treating with 6 different concentrations of GSK2033, Amgen 54 and DMHCl. To assess suppression of ligand activated receptors, the transfected cells were co-treated with increasing doses of GSK2033, Amgen 54 and DMHCl, in addition to T09091317 or Dex (at EC80 of LXR isoforms and GR, respectively).

[3] = across the treatment groups (Veh, Dex, Dex+GSK2033)

Cc1cc(C)c(S(=O)(=O)N(Cc2ccc(-c3cccc(S(C)(=O)=O)c3)cc2)Cc2ccc(C(F)(F)F)o2)c(C)c1 [GSK2033, 2,4,6-trimethyl-N-((3′-(methylsulfonyl)-[1,1′-biphenyl]-4-yl)methyl)-N-((5-(trifluoromethyl)furan-2-yl)methyl)benzenesulfonamide]
GR activity (GR [1]): unaffected; also recorded: did not antagonize
spleen size (weight normalized to body weight) (LXRα−/− mice; Dex 2.5 mg/kg bid + GSK2033 40 mg/kg, 5 days, vs Veh): significantly smaller
liver FOXO 1 gene induction (LXRα−/− mice; Dex+GSK2033 group): normalized
liver Pepck gene induction (LXRα−/− mice; Dex+GSK2033 group): normalized
liver GR gene expression (LXRα−/− mice; [3]): did not change
liver LXR gene expression (LXRα−/− mice; [3]): did not change
G6Pc expression (G6Pc; Example 6, 100 nM Dex + 10 μM GSK2033): 4.9 fold
G6Pc expression (G6Pc; Example 6, 10 μM Cortisol + 10 μM GSK2033): 7.5 fold
G6Pc expression (G6Pc; Example 6, 10 μM Prednisone + 10 μM GSK2033): 9.8 fold
G6Pc expression (G6Pc; Example 6, 10 μM Triamcinolone acetonide + 10 μM GSK2033): 8.6 fold
G6Pc expression (G6Pc; Example 8, 100 nM Dex + 10 μM LXR antagonist): 5.3 fold
T09 induction of Srebp-1c under GSK2033 co-treatment (Srebp-1c): significantly decreased
pIC50 (LXRβ; IC50 against LXRβ, Example 1, T0901317 at EC80 (100 nM), 8 concentrations): 7.43
pIC50 (LXRβ; IC50 to inhibit LXRβ, Example 7, T0901317 100 nM, 6 concentrations): 8.19
basal repression of LXRβ (LXRβ; preliminary experiment, 3 doses): basal repression
right-shift of LXRα IC50, primary hepatocytes vs HEK293 (LXRα): ~10 fold
Dex induced GR activity (GR [2]; Example 1, GAL4-GR activated with 100 nM Dex): unaffected; also recorded: did not antagonize
Dex induced GR activity (GR [2]; Example 7, 100 nM Dex): unaffected; also recorded: did not antagonize
